In patent publication US10376520B2, “Methods for the treatment of cardiovascular disorders” (Galapagos NV, priority 2015, dated 2019):

System: RA patients
Assay: Atherogenic index, Study 2 (RA patients, monotherapy)
Type: in vivo, human
Procedure: As used herein, the term ‘atherogenic index’ refers to
Double-blind, placebo-controlled, monotherapy study in subjects with moderately to severely active RA who have an inadequate response to methotrexate (MTX) (oral or parenteral).
Twelve weeks of treatment with Compound 1 (dosed as a [Compound 1:HCl:3H2O]) at 50 mg, 100 mg, or 200 mg q.d.; or placebo. At Week 12, all subjects on placebo and the subjects on the 50 mg dose who have not achieved 20% improvement in swollen joint count (SJC66) and tender joint count (TJC68) will be assigned to 100 mg q.d. in a blinded fashion and will continue treatment until Week 24. Subjects in the other groups will maintain their randomized treatment until Week 24.
The atherogenic index has been identified to be a good predictor of cardiovascular disorders risks and is calculated as follows: […]

[1] = Placebo switching to 100 mg q.d., week 16
[2] = Placebo switching to 100 mg q.d., week 20
[3] = Placebo switching to 100 mg q.d., week 24

## O=C(Nc1nc2cccc(-c3ccc(CN4CCS(=O)(=O)CC4)cc3)n2n1)C1CC1 [Compound 1, cyclopropanecarboxylic acid {5-[4-(1,1-dioxo-thiomorpholin-4-ylmethyl)-phenyl]-[1,2,4]triazolo[1,5-a]pyridin-2yl}-amide]
100 mg q.d., week 4
  Atherogenic index Median CFB - 12 weeks results: -0.10 mmol/L
  Atherogenic index Median CFB - 24 weeks results: -0.10 mmol/L
  Atherogenic index Median percentage CFB - 12 weeks results: −3.65%
  Atherogenic index Median percentage CFB - 24 weeks results: −3.65%
100 mg q.d., week 8
  Atherogenic index Mean CFB - 12 weeks results: -0.13 mmol/L
  Atherogenic index Mean percentage CFB - 12 weeks results: −3.37%
  Atherogenic index Mean percentage CFB - 24 weeks results: −3.37%
  Atherogenic index Median CFB - 12 weeks results: -0.10 mmol/L
  Atherogenic index Median CFB - 24 weeks results: -0.10 mmol/L
  Atherogenic index Median percentage CFB - 24 weeks results: −1.45%
100 mg q.d., week 12
  Atherogenic index Mean CFB - 12 weeks results: -0.07 mmol/L
  Atherogenic index Mean percentage CFB - 24 weeks results: −1.37%
  Atherogenic index Median CFB - 12 weeks results: -0.10 mmol/L
  Atherogenic index Median CFB - 24 weeks results: -0.10 mmol/L
  Atherogenic index Median percentage CFB - 12 weeks results: −2.78%
  Atherogenic index Median percentage CFB - 24 weeks results: −2.78%
100 mg q.d., week 16
  Atherogenic index Mean percentage CFB - 24 weeks results: −4.43%
  Atherogenic index Median CFB - 24 weeks results: -0.20 mmol/L
  Atherogenic index Median percentage CFB - 24 weeks results: −4.76%
100 mg q.d., week 20
  Atherogenic index Mean percentage CFB - 24 weeks results: −2.50%
  Atherogenic index Median CFB - 24 weeks results: 0.00 mmol/L
  Atherogenic index Median percentage CFB - 24 weeks results: 0.00%
100 mg q.d., week 24
  Atherogenic index Mean percentage CFB - 24 weeks results: −0.41%
  Atherogenic index Median CFB - 24 weeks results: 0.00 mmol/L
  Atherogenic index Median percentage CFB - 24 weeks results: 0.00%
200 mg q.d., week 1
  Atherogenic index Mean CFB - 12 weeks results: 0.15 mmol/L
  Atherogenic index Mean percentage CFB - 12 weeks results: 4.43%
  Atherogenic index Mean percentage CFB - 24 weeks results: 4.43%
  Atherogenic index Median CFB - 12 weeks results: 0.10 mmol/L
  Atherogenic index Median CFB - 24 weeks results: 0.10 mmol/L
  Atherogenic index Median percentage CFB - 12 weeks results: 1.96%
  Atherogenic index Median percentage CFB - 24 weeks results: 1.96%
200 mg q.d., week 2
  Atherogenic index Mean CFB - 12 weeks results: -0.09 mmol/L
  Atherogenic index Mean percentage CFB - 12 weeks results: −2.14%
  Atherogenic index Mean percentage CFB - 24 weeks results: −2.14%
  Atherogenic index Median CFB - 12 weeks results: 0.00 mmol/L
  Atherogenic index Median CFB - 24 weeks results: 0.00 mmol/L
  Atherogenic index Median percentage CFB - 12 weeks results: 0.00%
  Atherogenic index Median percentage CFB - 24 weeks results: 0.00%
200 mg q.d., week 4
  Atherogenic index Mean CFB - 12 weeks results: -0.18 mmol/L
  Atherogenic index Mean percentage CFB - 12 weeks results: −3.89%
  Atherogenic index Mean percentage CFB - 24 weeks results: −3.89%
  Atherogenic index Median CFB - 12 weeks results: -0.10 mmol/L
  Atherogenic index Median CFB - 24 weeks results: -0.10 mmol/L
  Atherogenic index Median percentage CFB - 12 weeks results: −3.65%
  Atherogenic index Median percentage CFB - 24 weeks results: −3.65%
200 mg q.d., week 8
  Atherogenic index Mean CFB - 12 weeks results: -0.16 mmol/L
  Atherogenic index Mean percentage CFB - 12 weeks results: −3.33%
  Atherogenic index Mean percentage CFB - 24 weeks results: −3.33%
  Atherogenic index Median CFB - 12 weeks results: -0.10 mmol/L
  Atherogenic index Median CFB - 24 weeks results: -0.10 mmol/L
  Atherogenic index Median percentage CFB - 12 weeks results: −3.33%
  Atherogenic index Median percentage CFB - 24 weeks results: −3.33%
200 mg q.d., week 12
  Atherogenic index Mean CFB - 12 weeks results: -0.04 mmol/L
  Atherogenic index Mean percentage CFB - 12 weeks results: 0.54%
  Atherogenic index Mean percentage CFB - 24 weeks results: 0.54%
  Atherogenic index Median CFB - 12 weeks results: 0.00 mmol/L
  Atherogenic index Median CFB - 24 weeks results: 0.00 mmol/L
  Atherogenic index Median percentage CFB - 12 weeks results: 0.00%
  Atherogenic index Median percentage CFB - 24 weeks results: 0.00%
200 mg q.d., week 16
  Atherogenic index Mean percentage CFB - 24 weeks results: 0.42%
  Atherogenic index Median CFB - 24 weeks results: 0.00 mmol/L
  Atherogenic index Median percentage CFB - 24 weeks results: 0.00%
200 mg q.d., week 20
  Atherogenic index Mean percentage CFB - 24 weeks results: −1.40%
  Atherogenic index Median CFB - 24 weeks results: -0.20 mmol/L
  Atherogenic index Median percentage CFB - 24 weeks results: −3.77%
200 mg q.d., week 24
  Atherogenic index Mean percentage CFB - 24 weeks results: 0.92%
  Atherogenic index Median CFB - 24 weeks results: -0.10 mmol/L
  Atherogenic index Median percentage CFB - 24 weeks results: −2.58%
[1]
  Atherogenic index Mean percentage CFB - 24 weeks results: −6.56%
  Atherogenic index Median CFB - 24 weeks results: -0.20 mmol/L
  Atherogenic index Median percentage CFB - 24 weeks results: −5.40%
[2]
  Atherogenic index Mean percentage CFB - 24 weeks results: −5.24%
  Atherogenic index Median CFB - 24 weeks results: -0.30 mmol/L
  Atherogenic index Median percentage CFB - 24 weeks results: −7.87%
[3]
  Atherogenic index Mean percentage CFB - 24 weeks results: −3.22%
  Atherogenic index Median CFB - 24 weeks results: -0.10 mmol/L
  Atherogenic index Median percentage CFB - 24 weeks results: −3.57%
